Test results from article PMC6123649, “Structural basis for specific inhibition of the highly sensitive ShHTL7 receptor” (EMBO Reports, 2018).
Values joined by “and” are separate entries in the source; they are usually repeats but may differ in a detail not shown here. Equal values may be shown once. Read-outs that look alike come from different tables or passages of the source.

Key:
OsD14 [1] = target: T1, OsD14 (Oryza sativa subsp. japonica, UniProt Q10QA5); assay: DSLS, aggregation temperature; assay type: binding; settings: up to 100 μM of Triton
T1 construct: made in house; host or cells: E. coli BL21 (DE3)
T1 sequence (Q10QA5 1-318): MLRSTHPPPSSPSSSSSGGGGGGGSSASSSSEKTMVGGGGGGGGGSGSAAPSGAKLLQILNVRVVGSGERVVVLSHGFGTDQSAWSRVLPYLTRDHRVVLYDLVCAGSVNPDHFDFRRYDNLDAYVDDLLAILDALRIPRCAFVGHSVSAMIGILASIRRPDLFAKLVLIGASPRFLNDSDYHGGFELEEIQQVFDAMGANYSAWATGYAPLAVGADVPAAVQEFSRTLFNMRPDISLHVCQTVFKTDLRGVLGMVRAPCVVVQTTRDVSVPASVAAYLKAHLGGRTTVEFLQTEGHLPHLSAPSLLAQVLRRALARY
Method: (§1) The specific aggregation temperature, T agg, at which ShHTL7, ShHTL7L143Y, AtD14, and OsD14 aggregated in the presence or absence of Triton X‐100, GR24, and PAA was measured using DSLS on the Stargazer system (Harbinger Biotechnology and Engineering Corporation, Markham, Canada). Protein samples at a concentration of 10 μM were overlaid with mineral oil in a clear bottom 384‐well black plate (Corning) and heated from 20 to 95°C at 1°C/min; light scattering was detected by a CCD camera every 0.5°C in the presence or absence of varying concentrations of Triton X‐100, GR24, and PAA yielding the difference in aggregation temperature at a particular concentration from apoproteins (ΔT agg). Data were normalized, and ΔT agg plotted against the Triton X‐100, GR24, and PAA concentration. Resulting data were plotted to determine the change in T agg of all proteins when bound to Triton X‐100, GR24, and PAA using GraphPad (Prism 6).

AtD14 [2] = target: T2, AtD14 (Arabidopsis thaliana, UniProt Q9SQR3); assay: DSLS, aggregation temperature; assay type: binding; settings: up to 100 μM of Triton
T2 construct: made in house; host or cells: E. coli BL21 (DE3)
T2 sequence (Q9SQR3 1-267): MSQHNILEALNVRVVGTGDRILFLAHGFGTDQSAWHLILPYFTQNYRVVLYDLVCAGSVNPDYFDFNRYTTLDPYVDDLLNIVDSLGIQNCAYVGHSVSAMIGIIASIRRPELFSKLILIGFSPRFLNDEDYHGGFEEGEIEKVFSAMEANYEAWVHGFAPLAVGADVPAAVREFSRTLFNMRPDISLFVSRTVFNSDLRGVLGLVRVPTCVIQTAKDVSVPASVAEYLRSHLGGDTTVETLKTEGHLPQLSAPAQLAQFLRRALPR
Method: as §1

OsD14 [3] = target: T1, OsD14; assay: YLG hydrolysis assay; assay type: biochemical
Method: (§2) In vitro YLG hydrolysis assays were performed using 3 μM of ShHTL7, ShHTL7‐L143Y, AtD14, and OsD14 in a reaction buffer (1× PBS) with 0.1% dimethyl sulfoxide (DMSO) in a 100 μl volume on a 96‐well black plate (Greiner). The fluorescent intensity was measured by SpectraMax i3 (Molecular Devices) using an excitation wavelength of 480 nm and a detection wavelength of 520 nm. ShHTL7, ShHTL7‐L143Y, AtD14, and OsD14 were mixed with Triton X‐100, using serial dilutions to cover the Triton X‐100 concentration range from 5 μM until 4.87 nM. Protein‐Triton mixes were pre‐incubated for 30 min. 1 μM YLG (Tokyo Chemical Industry Co. Ltd.) was then added, and the assay was incubated for 60 min. The change in fluorescence observed over the course of 1 h incubation of YLG in buffer without protein was subtracted from the data collected in the presence of protein. The resulting relative fluorescence values were analyzed. The inhibitory curves and IC50 values were plotted using GraphPad (Prism 6) four‐parameter logistic curve. The rate of YLG hydrolysis by ShHTL7 was recorded following the above method at 10‐min interval for 2 h.

AtD14 [4] = target: T2, AtD14; assay: YLG hydrolysis assay; assay type: biochemical
Method: as §2

Striga hermonthica seeds = assay: Striga hermonthica germination bioassay; assay type: in vivo
Method: Striga hermonthica seeds were collected from Sorghum bicolor field in Sudan. For germination bioassays, Striga seeds were first sterilized and pre‐conditioned as described before 31. […] Triton X‐100/GR24 mixtures were applied (50 μl per disk) in four replicates. Corresponding volumes of GR24 and sterile MiliQ water were included as positive and negative control, respectively. The petri dishes were sealed with parafilm, enfolded with aluminum foil, and incubated for 48 h at 30°C. The germinated (seeds with radicle emerging through the seed coat) and non‐germinated Striga seeds were recorded under a binocular, and germination percentage was calculated.

OsD14 [5] = target: T1, OsD14; assay: Intrinsic Triton fluorescence binding assay; settings: up to 5 μM of OsD14
Method: (§3) Triton X‐100 has an excitation and emission wavelength of 275 and 302 nm, respectively. ShHTL7, ShHTL7‐L143Y, AtD14, and OsD14 were incubated in 50 mM Tris–HCl pH 7.5, 150 mM NaCl, with or without 0.005% Tween‐20, at concentrations ranging from 10 μM to 1 nM (obtained using serial dilutions) with 154 nM of Triton X‐100 for 1–2 h, and fluorescence values were then measured by SpectraMax i3 (Molecular Devices) at excitation and detection wavelengths of 275 and 302 nm, respectively. […] Data were normalized to the background fluorescence from the protein to obtain the change in Triton X‐100 fluorescence intensity. To determine the K d, the changes in Triton X‐100 fluorescence intensity were plotted against the concentration of the protein using the single binding site model implemented in GraphPad (Prism 6).

ShHTL7 = target: T3, ShHTL7 (Striga hermonthica, UniProt A0A0M3PNA2); assay: Intrinsic Triton fluorescence binding assay
T3 sequence (A0A0M3PNA2 1-271): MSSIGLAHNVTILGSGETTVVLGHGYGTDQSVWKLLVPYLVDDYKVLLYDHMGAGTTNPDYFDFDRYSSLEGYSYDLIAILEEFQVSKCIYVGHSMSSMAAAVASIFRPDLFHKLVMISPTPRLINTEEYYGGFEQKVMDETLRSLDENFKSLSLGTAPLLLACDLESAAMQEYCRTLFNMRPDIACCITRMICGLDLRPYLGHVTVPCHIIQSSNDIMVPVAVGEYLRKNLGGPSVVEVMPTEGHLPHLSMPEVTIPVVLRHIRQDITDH
Method: as §3

ShHTL7S95C = assay: Intrinsic Triton fluorescence binding assay; parameters: species or system Striga hermonthica; settings: inactive ShHTL7S95C; buffer with 0.005% Tween‐20; converged after 2.5 h of incubation; read-out: dissociation constant (Kd), intrinsic Triton fluorescence

Substance: Triton X-100
- effect on T agg (OsD14 [1]): failed to affect
- effect on T agg (AtD14 [2]): failed to affect
- decrease of YLG hydrolysis rate (OsD14 [3]; 5 μM Triton): 10%
- effect on YLG hydrolysis activity (OsD14 [3]; Triton up to 0.5 μM): did not impact
- decrease of YLG hydrolysis rate (AtD14 [4]; 5 μM Triton): 10%
- effect on YLG hydrolysis activity (AtD14 [4]; Triton up to 0.5 μM): did not impact
- reduction in GR24‐induced germination (Striga hermonthica seeds; 15 μM Triton, GR24 0.125–1 nM, 2 days): ~ 50% and 50%
- reduction of Striga germination by Triton (Striga hermonthica seeds; in vivo): up to 50%
- change of Triton fluorescence in presence of protein (OsD14 [5]): did not change
- Kd for the Triton-ShHTL7 association (ShHTL7; across methods and buffers (authors' reply in peer review file)): ~ 250 nM
- Kd (ShHTL7; in the absence of Tween‐20, read-out: final Kd, intrinsic Triton fluorescence): 233 ± 30 nM
- Kd (ShHTL7; wild-type ShHTL7, buffer with 0.005% Tween‐20, converged after 2.5 h of incubation, read-out: dissociation constant (Kd), intrinsic Triton fluorescence): 284 ± 22 nM
- Kd (ShHTL7S95C): 195 ± 21 nM
